In paper PMC9867315, “Enhanced Cytotoxic Activity of PEGylated Curcumin Derivatives: Synthesis, Structure–Activity Evaluation, and Biological Activity” (International Journal of Molecular Sciences, 2023):
Read-outs that look alike come from different tables or passages of the source.

Columns and labels:
5637 cells [1] = experiment: MTT cytotoxicity assay, 5637 bladder cancer cells; type: cell-based, human
Protocol: (§1) For the hypoxia experiments, cells were cultured at 1% O2 (5% CO2/94% N2; 37 °C) using a hypoxia station (Whitley H35 hypoxystation; Don Whitley, Bingley, UK). All media used in these experiments were incubated under hypoxic conditions before being added to the cells.
(§2) Then, DMSO was added to dissolve the formazan crystals.

SCaBER cells [2] = experiment: MTT cytotoxicity assay, SCaBER bladder cancer cells; type: cell-based, human; conditions: hypoxia (1% oxygen)
Protocol: as §1, §2

SCaBER cells [3] = experiment: as above; type: cell-based, human; conditions: normoxia
MRC-5 cells [4] = experiment: MTT cytotoxicity assay, MRC-5 normal lung fibroblasts
Protocol: (§3) Human urinary grade II carcinoma cell line (5637) and human urinary squamous cell carcinoma (SCaBER) were purchased from ATCC (Manassas, VA, USA). The MRC-5 cell line (normal human lung fibroblasts) was purchased from the European Collection of Authenticated Cell Cultures (ECACC) distributed by Sigma-Aldrich. The 5637 cells were grown in RPMI, SCaBER cells were cultured in EMEM, and MRC-5 in DMEM. All media were supplemented with 10% (v/v) FBS, 2 mM L-glutamine, 100 U/mL penicillin, and 10 mg/mL streptomycin in a humidified atmosphere of 5% CO2 at 37 °C.
(§4) 5637 and SCaBER cells were seeded at 15 × 10^3 cells/well, while MRC-5 was at a density of 20 × 10^3 cells/well and incubated overnight. In the case of the hypoxia experiments, cells were transferred to a hypoxia chamber and incubated for 24 h. […] The cytotoxic activity of tested compounds was measured after 24 h and 48 h using the MTT assay. After incubation lasting 24 h and 48 h, the cells were washed twice with PBS, and 170 µL of MTT (final concentration of 0.59 mg/mL in cell culture medium) was added to each well. Cells were incubated for 1.5 h under standard cell culture conditions. Then, DMSO was added to dissolve the formazan crystals. The absorbance was measured at a wavelength of 570 nm with a plate reader (Biotek Instruments, Elx-800, Winooski, VT, USA). Cell viability was calculated as a percentage of the control. All experiments were repeated at least two times (two independent experiments performed in hexaplicate). The IC50 values were determined using GraphPad 8.0 software (GraphPad Software, Inc., La Jolla, CA, USA).

MRC-5 cells [5] = conditions: 10 µM
Protocol: as §3, §4

[6] = tested on: human peripheral blood mononuclear cell (PBMC); parameters: method as in ref 38 (Deters et al.); conditions: ref 38 (Deters et al.); cited from earlier work
[7] = parameters: method as in ref 41 (Wang et al.); conditions: ref 41 (Wang et al.), cited from earlier work
T24 cell line = tested on: T24 cell line; parameters: method as in ref 53 (Park et al.); conditions: T24 cells, 12.5 µM; ref 53 (Park et al.); cited from earlier work
5637 cells [8] = experiment: Proteome Profiler Human Cell Stress Array; type: cell-based; conditions: 5637, hypoxic conditions, 4 µM, 18 h, compared to control cells
Protocol: The 5637 cells were seeded in a Petri dish (Ø 35 mm) at a density of 0.4 × 10^6 cells/dish and incubated overnight. Cells were treated with compound 5 at a concentration of 4 µM (hypoxia) and 8 µM (normoxia) for 18 h. […] After incubation, cells were lysed in a lysis buffer containing pepstatin A, leupeptin, and aprotinin (each at a concentration of 10 µg/mL). Total protein was determined using a Pierce BCA protein assay Kit and stored at −80 °C until future use. A total of 300 µg of protein was then incubated with a human Proteome Profiler Human Cell Stress Array (Bio-Techne, Minneapolis, MN, USA) according to the manufacturer’s instructions. The membranes were visualized using the I-Bright Imaging System (Thermofisher Scientific, Waltham, MA, USA). The spot densitometric analysis was performed using Image Studio Lite (version 5.2) software (LI-COR Biosciences, Lincoln, NE, USA).

5637 cells [9] = experiment: Cell cycle distribution, propidium iodide flow cytometry; type: cell-based, human; conditions: for G2/M cell population: 5637, 6 µM, 24 h
Protocol: The 5637 cells (0.4 × 10^6 cells/well) were seeded in 6-well plates and incubated overnight under standard cell culture conditions or in a hypoxia workstation. Then, the tested compound was added at a concentration of 4 µM, 5 µM, and 6 µM (for hypoxic conditions), and 6 µM, 8 µM, and 10 µM (for normoxic conditions), and incubated for 24 h. […] After incubation, cells were washed twice with PBS, trypsinized, and washed again with PBS. Cells were fixed with 70% ethanol at 4 °C. After fixation, the cells were washed twice with PBS and treated with RNAse (100 µg/mL) and PI (50 µg/mL) for 30 min at 37 °C in the dark. The samples were analyzed using BD FACSLyric™ (Becton Dickinson, Franklin Lakes, NJ, USA). Finally, cell cycle distribution was analyzed using flow cytometry. The percentages of cells in the G1, S, and G2/M phases were calculated using FlowJo software version 10.8.1 (Becton Dickinson, Ashland, OR, USA).

[10] = MTT cytotoxicity assay, MRC-5 normal lung fibroblasts; conditions: human, MRC-5 normal lung fibroblasts
Protocol: as §3, §4

[11] = 5637, hypoxia (1% oxygen), 24 h incubation, MTT, read-out: IC50
[12] = 5637, hypoxia (1% oxygen), 48 h incubation, MTT, read-out: IC50
[13] = 5637, normoxia, 24 h incubation, MTT, read-out: IC50
[14] = 5637, normoxia, 48 h incubation, MTT, read-out: IC50
[15] = MRC-5, normoxia, 24 h incubation, MTT
[16] = MRC-5, normoxia, 48 h incubation, MTT
[17] = Homo sapiens, 24 h, 24 h incubation
[18] = Homo sapiens, 48 h, 48 h incubation
[19] = 5637, 24 h, hypoxic conditions, vs control
[20] = Homo sapiens, 24 h, 5637, hypoxia (1% oxygen), 24 h incubation, MTT, read-out: IC50
[21] = Homo sapiens, 24 h, 5637, normoxia, 24 h incubation, MTT, read-out: IC50
[22] = Homo sapiens, 48 h, 5637, hypoxia (1% oxygen), 48 h incubation, MTT, read-out: IC50
[23] = Homo sapiens, 48 h, 5637, normoxia, 48 h incubation, MTT, read-out: IC50

Molecule | IC50 (SCaBER cells [2]; 24 h incubation) [µM] | IC50 (SCaBER cells [2]; 48 h incubation) [µM] | IC50 (SCaBER cells [3]; 24 h incubation) [µM] | IC50 (SCaBER cells [3]; 48 h incubation) [µM] | IC50 (5637 cells [1]; [11]) [µM] | IC50 (5637 cells [1]; [12]) [µM] | IC50 (5637 cells [1]; [13]) [µM] | IC50 (5637 cells [1]; [14]) [µM] | IC50 (MRC-5 cells [4]; [15]) [µM] | IC50 (MRC-5 cells [4]; [16]) [µM] | other results
COCCOCCOCCOc1cc(/C=C/C(=O)/C=C(O)/C=C/c2ccc(OC)c(OCCOCCOCCOC)c2)ccc1OC [Compound 7, (1E,4Z,6E)-5-hydroxy-1,7-bis(4-methoxy-3-{2-[2-(2-methoxyethoxy)ethoxy]ethoxy}phenyl)-hepta-1,4,6-trien-3-one] | – | – | – | – | – | – | – | – | – | – | viability at 10 µM (5637 cells [1]; Homo sapiens, 5637, 10 µM, 24 h incubation, preliminary screen, read-out: cell viability): > 60%
(1E,3Z,6E)-1,7-bis(4-methoxy-3-{2-[2-(2-methoxyethoxy)ethoxy]ethoxy}phenyl)-5-oxohepta-1,3,6-trien-3-yl difluoroborinate [Compound 6] | 5.85 ± 1.98 | 7.28 ± 1.81 | 4.11 ± 1.4 | 4.35 ± 1.97 | 2.37 ± 0.19 | 2.66 ± 0.07 | 2.6 ± 0.99 | 2.63 ± 0.77 | > 10 | 9.34 ± 0.76 | –
(1E,3Z,6E)-1,7-bis(3-methoxy-4-hydroxyphenyl)-5-oxohepta-1,3,6-trien-3-yl difluoroborinate [Compound 10] | 2.35 ± 0.22 | 2.6 ± 0.03 | 2.59 ± 0.16 | 2.71 ± 0.34 | 1.96 ± 0.47 | 2.12 ± 0.33 | 2.25 ± 0.08 | 2.17 ± 0.24 | > 10 | 7.84 ± 0.15 | –
(1E,3Z,6E)-1,7-bis(3-methoxy-4-{2-[2-(2-methoxyethoxy)ethoxy]ethoxy}phenyl)-5-oxohepta-1,3,6-trien-3-yl difluoroborinate [Compound 4] | 2.42 ± 0.23 | 2.86 ± 0.62 | 4.18 ± 1.3 | 4.57 ± 2.07 | 2.58 ± 0.11 | 2.96 ± 0.23 | 3.31 ± 0.34 | 3.27 ± 0.45 | > 10 | > 10 | cell viability (MRC-5 cells [5]): 66%
(1E,4Z,6E)-5-hydroxy-1,7-bis (3-methoxy-4-hydroxyphenyl)-hepta-1,4,6-trien-3-one [Curcumin (11), reference compound] | 11.6 ± 0.83 | 11.3 ± 0.19 | 13.1 ± 0.68 | 12.6 ± 0.62 | 12.1 ± 0.16 | 13.3 ± 0.54 | 12.7 ± 3.03 | 12.9 ± 2.35 | 70.4 ± 12.5 | 45.3 ± 3.18 | IC50 [6]: 2.8 µM; curcumin decomposed ([7]; cell culture medium in the presence of FCS, within 1 h): less than 20%; curcumin decomposed ([7]; cell culture medium in the presence of FCS, within 8 h): < 50%; curcumin decomposed ([7]; serum-free medium, within 30 min): about 90%; cell population in G2/M (T24 cell line): 64%
(1E,3Z,6E)-1,7-bis(4-methoxy-3-hydroxyphenyl)-5-oxohepta-1,3,6-trien-3-yl difluoroborinate [Compound 12] | 3.26 ± 1.05 | 4.25 ± 1.94 | 2.28 ± 0.13 | 2.21 ± 0.17 | 2.32 ± 0.29 | 2.64 ± 0.54 | 2.48 ± 0.55 | 2.4 ± 0.45 | 9.63 ± 2.61 | 5.8 ± 0.77 | –
COCCOCCOCCOc1ccc(/C=C/C(=O)/C=C(O)/C=C/c2ccc(OCCOCCOCCOC)c(OC)c2)cc1OC [Compound 5, (1E,4Z,6E)-5-hydroxy-1,7-bis(3-methoxy-4-{2-[2-(2-methoxyethoxy)ethoxy]ethoxy}phenyl)-hepta-1,4,6-trien-3-one] | – | – | – | – | – | – | – | – | – | – | expression of HIF-1α, HIF-2α, ADAMTS-1, phospho-JNK, p21, and phospho-HSP27 (5637 cells [8]): increased; IC50 (SCaBER cells [2]; [17]): 7.27 ± 0.2 µM; IC50 (SCaBER cells [2]; [18]): 7.58 ± 0.91 µM; G2/M cell population (5637 cells [9]; hypoxia): 38%; G2/M cell population (5637 cells [9]; normoxia): 24%; number of cells in the G0/G1 phase (5637 cells [9]; [19]): significantly decreased; number of cells in the S phase (5637 cells [9]; [19]): slightly increased; IC50 (SCaBER cells [3]; [17]): 8.53 ± 0.16 µM; IC50 (SCaBER cells [3]; [18]): 7.97 ± 0.4 µM; IC50 (5637 cells [1]; [20]): 6.43 ± 0.26 µM; IC50 (5637 cells [1]; [21]): 8.4 ± 0.21 µM; IC50 (5637 cells [1]; Homo sapiens, 24 h, 5637, panel A (normoxia, 5-10 µM), 24 h, read-out: IC50 (narrow concentration range)): 7.89 ± 0.47 µM; IC50 (5637 cells [1]; Homo sapiens, 24 h, 5637, panel B (hypoxia 1% oxygen, 3-8 µM), 24 h, read-out: IC50 (narrow concentration range)): 5.29 ± 0.02 µM; IC50 (5637 cells [1]; [22]): 5.02 ± 1.06 µM; IC50 (5637 cells [1]; [23]): 7.91 ± 0.46 µM; IC50 (5637 cells [1]; Homo sapiens, 48 h, 5637, panel A (normoxia, 5-10 µM), 48 h, read-out: IC50 (narrow concentration range)): 7.82 ± 1 µM; IC50 (5637 cells [1]; Homo sapiens, 48 h, 5637, panel B (hypoxia 1% oxygen, 3-8 µM), 48 h, read-out: IC50 (narrow concentration range)): 5.29 ± 0.16 µM; IC50 (MRC-5 cells [4]; Homo sapiens, MRC5, 24 h): > 10 µM; IC50 (MRC-5 cells [4]; Homo sapiens, MRC5, 48 h): > 10 µM; viability at 10 µM [10]: ~100%
COc1ccc(/C=C/C(=O)/C=C(O)/C=C/c2ccc(OC)c(O)c2)cc1O [Isocurcumin (13), (1E,4Z,6E)-5-hydroxy-1,7-bis(4-methoxy-3-hydroxyphenyl)-hepta-1,4,6-trien-3-one] | – | – | – | – | – | – | – | – | – | – | IC50 [6]: 2.8 µM; IC50 (SCaBER cells [2]; [17]): 14.2 ± 0.23 µM; IC50 (SCaBER cells [2]; [18]): 11.94 ± 0.09 µM; IC50 (SCaBER cells [3]; [17]): 14.7 ± 0.88 µM; IC50 (SCaBER cells [3]; [18]): 14.3 ± 0.41 µM; IC50 (5637 cells [1]; [20]): 13.1 ± 2.89 µM; IC50 (5637 cells [1]; [21]): 10.8 ± 3.46 µM; IC50 (5637 cells [1]; [22]): 10.1 ± 3.12 µM; IC50 (5637 cells [1]; [23]): 6.71 ± 1.7 µM; IC50 (MRC-5 cells [4]; Homo sapiens, MRC5, 24 h): > 20 µM; IC50 (MRC-5 cells [4]; Homo sapiens, MRC5, 48 h): > 20 µM
